# According to patent US6620985B1, “PAD4 nucleic acid compositions from Arabidopsis and methods therefor” (University of Maryland Biotechnology Institute, priority 1998, dated 2003):
# How the values were obtained:
# PR-1 = PR-1 expression (RNA blot) after SA treatment; assay type: in vivo, Arabidopsis thaliana
# Text: Plants and Growth Conditions. Wild-type plants (Arabidopsis thaliana ecotype Columbia (Col)) and pad4 plants from a line that had been backcrossed four times to the wild-type parent (Col) (Glazebrook et al., 1996, Genetics 143, 973-982) were used in this study. Arabidopsis ecotype Keswick (Ksk) was provided by Eric Holub (Horticulture Research International, Warwick, UK). Arabidopsis ecotype Landsberg erecta (Ler) plants carrying the nahG transgene were provided by Xinnian Dong (Bowling et al., 1994, Plant Cell 6, 1845-1857). nahG mutant plants used in this example, and all other examples, were of the Ler ecotype. Plants were grown in pots in Metro-Mix 200 soil (Scotts-Sierra Horticultural Products Company, Marysville, Ohio) in a growth chamber (22±2° C., 85% relative humidity, 100 μE s^−1 m^−2 fluorescent illumination) on a 12-hr light/dark cycle. Fully-expanded leaves of four-week old plants were used.
# Inoculations with Bacteria and Treatment with Chemicals. Pseudomonas syringae pv maculicola (Psm) ES4326 (Dong et al., 1991, Plant Cell 3, 61-72; Crute et al., 1994, in Arabidopsis, eds. Meyerowitz & Somerville, Cold Spring Harbor Press, NY, pp. 705-747), Pseudomonas. syringae pv tomato (Pst) DC3000 (Cuppels, 1986, Appl. Environ. Microbiol. 52, 323-327) and Xanthomonas campestris pv campestris (Xcc) BP109 (Weiss et al., 1994, J. Bacteriol. 176, 3354-3359) have been described. […]
# Psm ES4326 = Psm ES4326 growth in plants sprayed with SA; assay type: in vivo, Pseudomonas syringae pv maculicola; conditions: 5 mM SA sprayed one day before infection; titer three days after infection; wild-type and pad4-1
# Text: (§1) Inoculations with Bacteria and Treatment with Chemicals. Pseudomonas syringae pv maculicola (Psm) ES4326 (Dong et al., 1991, Plant Cell 3, 61-72; Crute et al., 1994, in Arabidopsis, eds. Meyerowitz & Somerville, Cold Spring Harbor Press, NY, pp. 705-747), Pseudomonas. syringae pv tomato (Pst) DC3000 (Cuppels, 1986, Appl. Environ. Microbiol. 52, 323-327) and Xanthomonas campestris pv campestris (Xcc) BP109 (Weiss et al., 1994, J. Bacteriol. 176, 3354-3359) have been described. The avirulence gene avrRpt2 was carried on plasmid pLH12 as described (Dong et al., 1991, Plant Cell 3, 61-72; Whalen et al., 1991, Plant Cell 3, 49-59). P. syringae strains were grown in King's B medium supplemented with appropriate antibiotics (Glazebrook and Ausubel, 1994, Proc. Natl. Acad. Sci. USA 91, 8955-8959), and Xcc BP1 09 was grown in Luria-Bertani medium supplemented with 50 μg/mL rifampicin. Bacteria were infiltrated into Arabidopsis plants as described (Glazebrook and Ausubel, 1994, PNAS USA 91, 8955-8959; Glazebrook et al., 1996, Genetics 146: 381-392). For camalexin assays, the bacterial dose for P. syringae strains was 3×10^4 colony-forming units (cfu)/cm^2 leaf area (equivalent to OD600=0.006); for Xcc BP109 it was 5×10^5 cfu/cm^2 (OD600=0.1). […]
# camalexin synthesis = experiment: Camalexin assay in Psm ES4326-infected leaves; assay type: in vivo, Arabidopsis thaliana; conditions: SA sprayed one day before Psm ES4326 infection, assayed two days after infection
# Text: as §1
# Phytoalexin Quantitation. […]
# PAD4 mRNA = experiment: PAD4 RNA blot analysis after SA treatment; assay type: in vivo, Arabidopsis thaliana; conditions: 5 mM SA
# Text: Inoculations with Bacteria and Treatment with Chemicals. Pseudomonas syringae pv maculicola (Psm) ES4326 (Dong et al., 1991, Plant Cell 3, 61-72; Crute et al., 1994, in Arabidopsis, eds. Meyerowitz & Somerville, Cold Spring Harbor Press, NY, pp. 705-747), Pseudomonas. syringae pv tomato (Pst) DC3000 (Cuppels, 1986, Appl. Environ. Microbiol. 52, 323-327) and Xanthomonas campestris pv campestris (Xcc) BP109 (Weiss et al., 1994, J. Bacteriol. 176, 3354-3359) have been described. The avirulence gene avrRpt2 was carried on plasmid pLH12 as described (Dong et al., 1991, Plant Cell 3, 61-72; Whalen et al., 1991, Plant Cell 3, 49-59). P. syringae strains were grown in King's B medium supplemented with appropriate antibiotics (Glazebrook and Ausubel, 1994, Proc. Natl. Acad. Sci. USA 91, 8955-8959), and Xcc BP1 09 was grown in Luria-Bertani medium supplemented with 50 μg/mL rifampicin. Bacteria were infiltrated into Arabidopsis plants as described (Glazebrook and Ausubel, 1994, PNAS USA 91, 8955-8959; Glazebrook et al., 1996, Genetics 146: 381-392). For camalexin assays, the bacterial dose for P. syringae strains was 3×10^4 colony-forming units (cfu)/cm^2 leaf area (equivalent to OD600=0.006); for Xcc BP109 it was 5×10^5 cfu/cm^2 (OD600=0.1). For experiments involving extraction of total RNA from infected leaves, Psm ES4326 and Psm ES4326 carrying avrRpt2 were introduced at a dose of 10^4 cfu/cm^2 leaf area (equivalent to OD600=0.002). For determination of Psm ES4326 growth, plants were infected with Psm ES4326 at a dose of 10^3 cfu/cm^2 leaf area (equivalent to OD600=0.0002). After […] were excised and bacterial growth was assayed as described (Glazebrook et al., 1996, Genetics 143, 973-982). Data are reported as means and standard deviations of the log(cfu/cm^2) of six replicates. For chemical treatment, plants were sprayed with 5 mM SA or 5 mM silver nitrate with 0.02% Silwet L-77 (Lehle Seeds, Tucson, Ariz.) to reduce surface tension. Control plants were sprayed with water containing 0.02% Silwet L-77.
# PAD4 RNA Blot Analysis. […]
smiles,measurement,setting,value
"O=C(O)c1ccccc1O [SA, salicylic acid]",PR-1 mRNA level in pad4-1 plants,"PR-1; 5 mM SA one day before Psm ES4326 infection, two days after infection",comparable to that in wild-type plants
same,PR-1 expression in response to SA,"PR-1; plants sprayed with 5 mM SA, wild-type and pad4-1, monitored for several days",induced similar levels of PR-1 expression in wild-type and pad4-1 plants
same,resistance to Psm ES4326 (bacterial titer),Psm ES4326,induced comparable levels of resistance to Psm ES4326 in wild-type and pad4-1 plants
same,camalexin levels in wild-type plants,camalexin synthesis,little effect on camalexin levels
same,camalexin levels in pad4-1 plants,camalexin synthesis; vs not pretreated,much higher camalexin levels
same,PAD4 transcript levels in npr1-1 plants,PAD4 mRNA; six and twelve hours after treatment,undetectable
same,PAD4 transcript levels in wild-type plants,"PAD4 mRNA; wild-type (Col), six and twelve hours after treatment",markedly detectable
same,PAD4 mRNA levels,"PAD4 mRNA; wild-type (Col, Ler), pad4-1, pad4-3, pad4-4 plants",increased rapidly after SA treatment
